The record followed here is patent US12297235B2, “Synthetic peptide compounds and methods of use” (REALTA HOLDINGS, LLC, priority 2015, dated 2025).

One series deals with HSV-1. The experiment in a line: HSV-1-GFP infection of CV-1 cells, flow cytometry. The note with it: 16 hours. Format: cell-based. Here is the method: CV-1 cells were infected with HSV-1-GFP for 16 hours. Post-infection, CV-1 cells were detected by flow cytometry (FIG. 33). […] Acyclovir (the standard of care for severe HSV-1 infections) was also added as a control at the same molar ratio.

A further series relates to Gardnerella. The experiment in a line: Gardnerella growth inhibition. Format: cell-based. Here is the method: The plates were then incubated at 37° C. overnight and then the plates were read on a spectrophotometer at an absorbance of OD600 nm to determine the turbidity of the solution. Decreased turbidity is indicative of inhibition of bacterial growth.
Complement activation was assayed by measuring the production of C5a using ELISA methodology. […] The associated inflammation causes the symptoms of bacterial vaginosis and increases the risk of HIV-transmission by disrupting normal barrier defenses in the vagina.

Series [1] is classed as biochemical, human. Conditions: 0.77 mM peptide in factor B-depleted serum. Here is the method:
(§1) Peptides were diluted to 0.77 mM in factor B-depleted human sera (Complement Technologies, Inc.) and incubated for 1 hour at 37° C. These peptides were then diluted with GVBS^++ to equal 2.5% serum, of which 0.25 ml was combined with 0.4 ml of GVBS^++ and 0.1 ml of sensitized sheep red blood cells (RBCs) and again incubated for 1 hour at 37° C. The procedure was stopped by the addition of 4.0 ml of GVBS^−− centrifuged for 5 minutes at 1,620×g, and the absorbance of the supernatants was read at 412 nm in a spectrophotometer. The percent lysis of each sample was standardized to that of the serum only control.
(§2) The final concentration of peptide in factor B-depleted serum was 0.77 mM. Each peptide was evaluated in triplicate and the mean values are reported. […] In the hemolytic assay, soluble peptides are standardized to water and insoluble peptides standardized to DMSO.
(§3) Polar Assortant peptides were serially diluted in undiluted factor B-depleted human sera (Complement Technologies, Inc.) and incubated for 1 hour at 37° C. Water, GVBS^++ and DMSO were included as controls. These peptides were then diluted with GVBS^++ to equal 2.5% serum, of which 0.25 ml was combined with 0.4 ml of GVBS^++ and 0.1 ml of sensitized sheep red blood cells (RBCs) and again incubated for 1 hour at 37° C. The procedure was stopped by the addition of 4.0 ml of GVBS^−−, centrifuged for 5 minutes at 1,620×g, and the absorbance of the supernatants was read at 412 nm in a spectrophotometer. The percent lysis of each sample was standardized to that of the serum only control.
(§4) The final concentration of peptide in factor B-depleted serum was 0.77 mM. […] In the hemolytic assay, soluble peptides were standardized to water and insoluble peptides standardized to DMSO.
(§5) The final concentration of peptide in factor B-depleted serum was 0.77 mM. […] In the hemolytic assay, soluble peptides are standardized to water and insoluble peptides standardized to DMSO.

A further series can be described thus: Solubility in water. The class given is physicochemical.
Series [2] deals with complement activation in factor B-depleted human sera. The class given is biochemical. Conditions: for Complement inhibition in hemolytic assay: factor B-depleted serum. Here is the method: as §1, §2, §3, §4, §5
Series [3] in a line: Complement-mediated hemolysis of type B erythrocytes by type O donor plasma (ATR in vitro model). Conditions: highly hemolytic type-O plasma, dose-response, maximum. The class given is biochemical, human. Here is the method:
Plasma from both donors were diluted with GVBS++ (veronal buffered saline with 0.1% gelatin, 0.15 mM CaCl2 and 1 mM MgCl2) and incubated with purified erythrocytes from a B+ donor at 37° C. for 1 hour. Free hemoglobin was measured by spectrophotometer at 412 nm.

Series [4] can be described thus: Single-dose toxicology, maximum deliverable dose. Format: in vivo, rat. The note with it: 60 mg [240 mg/kg] i.v.
The conditions of series [5]: 40 mg [160 mg/kg] i.v.
From the text: Eight animals were sacrificed at day 3, and ten were sacrificed at day 14.
In series [6] the test system is complement-mediated hemolysis of transfused huRBCs. The series is described as follows: Rat AIHTR model, xenotransfusion of human RBCs. The note with it: prophylaxis; 40 mg PA-dPEG24 vs NS at 5 and 20 minutes (P≤0.05); CVF 130 μg i.p. 24 hours before. Format: in vivo, Wistar rat.
Method: This process generates 1 ml huRBCs at 80% hematocrit, which was given as a 15% transfusion to the rats.
For both experiments, animals allotted to the saline control group received NS prior to huRBC transfusion whereas the CVF group received 130 μg CVF (Complement Technologies, Inc.) intra-peritoneum (LP.) 24 hours prior to the huRBC transfusion.
Using weight-based doses of ketamine and acepromazine, animals were sedated throughout the course of the experiment with periodic monitoring of vital signs. Blood samples were collected into EDTA microtainer tubes (BD) from the animals prior to the huRBC transfusion and then at 30 seconds, 5 minutes, 20 minutes, 60 minutes and 120 minutes after the huRBC transfusion. […]
Flow cytometry was performed on the collected RBCs using a FACS Calibur flow cytometer (Becton Dickinson, Franklin Lakes, NJ) with DXP 8 Color 488/637/407 Upgrade (Cytek Development, Fremont, CA). […] Data was analyzed using FlowJo X version 10.0.7r2 (FlowJo LLC, Ashland, OR). […]
For bilirubin measurements, the pre-bleed and 120 minute plasma samples from the prophylaxis (n=8) and NS (n=7) groups were analyzed for the amount of bilirubin present using the Bilirubin Assay Kit (Sigma-Aldrich, St. Louis, MO) in half the manufacturer's recommend volume. […]
Series [7] relates to hypoxic ischemic brain injury. The class given is in vivo, Wistar rat. The note with it: CVF injection before ligation/hypoxia.

“Also recorded” adds a separate entry of the source. Read-outs that look alike come from different tables or passages of the source. Square brackets hold non-standard residues; d marks the D form. Ends that are not written are not given here. Peptide text beside a SMILES is read from it. Sar = CNCC(=O)O

Take `Nc1nc2c(ncn2COCCO)c(=O)[nH]1` [Acyclovir]: the “Inhibition of HSV-1 replication” value in the series on HSV-1 is “never able to completely inhibit replication”.
Regarding `CC[C@H](C)[C@H](N)C(=O)N[C@@H](C)C(=O)N[C@@H](CC(C)C)C(=O)N(C)CC(=O)N[C@@H](CC(C)C)C(=O)N[C@@H](CCC(=O)O)C(=O)N1CCC[C@H]1C(=O)N[C@H](C(=O)N[C@@H](CS)C(=O)N[C@@H](CS)C(=O)N[C@@H](CCC(N)=O)C(=O)N[C@@H](CCC(=O)O)C(=O)N[C@@H](CCCNC(=N)N)C(=O)N[C@@H](C)C(=O)N[C@@H](C)C(=O)O)[C@@H](C)CC` [PA-I4Sar] (H-IAL[Sar]LEPICCQERAA-OH), in the series with Gardnerella, the “Inhibition of Gardnerella growth” value was “inhibited the growth”.
On the same count and under the same terms, under `CC[C@H](C)[C@H](N)C(=O)N[C@@H](C)C(=O)N(C)CC(=O)N[C@H](C(=O)N[C@@H](CC(C)C)C(=O)N[C@@H](CCC(=O)O)C(=O)N1CCC[C@H]1C(=O)N[C@H](C(=O)N[C@@H](CS)C(=O)N[C@@H](CS)C(=O)N[C@@H](CCC(N)=O)C(=O)N[C@@H](CCC(=O)O)C(=O)N[C@@H](CCCNC(=N)N)C(=O)N[C@@H](C)C(=O)N[C@@H](C)C(=O)O)[C@@H](C)CC)[C@@H](C)CC` [PA-L3Sar] (H-IA[Sar]ILEPICCQERAA-OH) stands “inhibited the growth”.
As for `CC[C@H](C)[C@H](N)C(=O)N[C@@H](C)C(=O)N[C@@H](CC(C)C)C(=O)N[C@H](C(=O)N(C)CC(=O)N[C@@H](CCC(=O)O)C(=O)N1CCC[C@H]1C(=O)N[C@H](C(=O)N[C@@H](CS)C(=O)N[C@@H](CS)C(=O)N[C@@H](CCC(N)=O)C(=O)N[C@@H](CCC(=O)O)C(=O)N[C@@H](CCCNC(=N)N)C(=O)N[C@@H](C)C(=O)N[C@@H](C)C(=O)O)[C@@H](C)CC)[C@@H](C)CC` [PA-L5Sar] (H-IALI[Sar]EPICCQERAA-OH), the “Inhibition of Gardnerella growth” value in the series on Gardnerella is reported as “inhibited the growth”.
The molecule `CC[C@H](C)[C@H](NC(=O)[C@H](CC(C)C)NC(=O)[C@H](C)N)C(=O)N[C@@H](CC(C)C)C(=O)N[C@@H](CCC(=O)O)C(=O)N1CCC[C@H]1C(=O)N[C@H](C(=O)N[C@@H](CS)C(=O)N[C@@H](CS)C(=O)N(C)CC(=O)N[C@@H](CCC(=O)O)C(=O)N[C@@H](CCCNC(=N)N)C(=O)N[C@@H](C)C(=O)N[C@@H](C)C(=O)O)[C@@H](C)CC` [PA-Q11Sar] (H-ALILEPICC[Sar]ERAA-OH; N-terminus and C-terminus assumed) came in with a hemolysis in series [1] (human, mean of triplicate, standardized to water (soluble) or DMSO (insoluble)) of 3.02%. For the same molecule, in “Solubility in water” (Table 5, sarcosine substitution peptides), the Solubility in water result was “No”.
As to `CC[C@H](C)[C@H](N)C(=O)N[C@@H](C)C(=O)N[C@@H](CC(C)C)C(=O)N[C@H](C(=O)N[C@@H](CC(C)C)C(=O)N[C@@H](CCC(=O)O)C(=O)N1CCC[C@H]1C(=O)N[C@H](C(=O)N[C@@H](CS)C(=O)N[C@@H](CS)C(=O)N[C@@H](CCC(N)=O)C(=O)N[C@@H](CCC(=O)O)C(=O)N[C@@H](CCCNC(=N)N)C(=O)N[C@@H](C)C(=O)N[C@@H](C)C(=O)NCCOCCOCCOCCOCCOCCOCCOCCOCCOCCOCCOCCOCCOCCOCCOCCOCCOCCOCCOCCOCCOCCOCCOCCOCCC(=O)O)[C@@H](C)CC)[C@@H](C)CC` [PA-dPEG24], the hemolysis in series [1] (standardized to water or DMSO, Table 6) was determined as 2.99%. Also, in [2] (0.77 mM peptide in factor B-depleted serum, standardized to water or DMSO, Table 7), the “Hemolysis (%)” value is on record as 2.99%. Also, the Solubility in water result in “Solubility in water” (Table 7, PEGylated and Sar/Ala substitution peptides) is on record as “Yes”. In series [3], this molecule registered a percent inhibition of hemolysis of more than 95%. Further, in series [4] (48 Hr (n = 6)), the ALT is 44.0 U/L, the AST was 69.0 U/L, the AlkPhos turned out to be 194 U/L and the BUN is given as 15.8 mg/dL. In series [4] (48 Hr (n = 6)), the Bilirubin is given as 0.1 mg/dL, the CPK stood at 142 U/L, the Creatinine amounted to 0.3 mg/dL and the GGT was 1 U/L. Further, in series [4] (48 Hr (n = 6)), the Lipase came to 10.3 U/L, the Platelets is on record as 1045 10^3/μL and the RBC is reported as 5.3 10^6/μL. In series [4] (Day 7 (n = 6)), this molecule yielded an ALT of 76.3 U/L, an AST of 84.3 U/L, an AlkPhos of 147 U/L and a BUN of 13.5 mg/dL. In series [4] (Day 7 (n = 6)), this molecule displayed a Bilirubin of 0.1 mg/dL, a CPK of 316 U/L, a Creatinine of 0.4 mg/dL and a GGT of 1 U/L. In series [4] (Day 7 (n = 6)), the Lipase came to 8.5 U/L, the Platelets is listed as 623 10^3/μL and the RBC is 5.8 10^6/μL. In series [4] (Day 14 (n = 6)), this molecule yielded an ALT of 55.8 U/L, an AST of 104 U/L, an AlkPhos of 154 U/L and a BUN of 14.7 mg/dL. Moreover, in series [4] (Day 14 (n = 6)), the Bilirubin amounted to 0.1 mg/dL, the CPK amounted to 580 U/L, the Creatinine is recorded as 0.4 mg/dL and the GGT stood at 1 U/L. The same molecule showed a Lipase in series [4] (Day 14 (n = 6)) of 9.7 U/L. In addition, the “Blood work (CBC and complete blood chemistry) toxicities” value in series [4] (first 24 hours, 48 hours, day 7 or day 14) is reported as “No toxicities”. In [5] (48 Hr (n = 8)), this molecule had an ALT of 62.8 U/L, an AST of 108 U/L, an AlkPhos of 104 U/L and a BUN of 17.8 mg/dL. In [5] (48 Hr (n = 8)), this molecule came in with a Bilirubin of 0.1 mg/dL, a CPK of 538 U/L, a Creatinine of 0.3 mg/dL and a GGT of 1.0 U/L. Moreover, in [5] (48 Hr (n = 8)), the Lipase is 11.8 U/L, the Platelets is 987 10^3/μL and the RBC is given as 5.8 10^6/μL. In series [5] (Day 14 (n = 10)), this molecule gave an ALT of 77.4 U/L, an AST of 111 U/L, an AlkPhos of 115 U/L and a BUN of 13.2 mg/dL. Besides, in [5] (Day 14 (n = 10)), the Bilirubin came out at 0.1 mg/dL, the CPK was 592 U/L, the Creatinine was found to be 0.3 mg/dL and the GGT is recorded as 1.1 U/L. In series [5] (Day 14 (n = 10)), the Lipase is 6.4 U/L, the Platelets is listed as 825 10^3/μL and the RBC is reported as 6.6 10^6/μL. For the same molecule, the Organ histology entry in series [5] (day 3 and day 14) is recorded as “no histological evidence for toxicity”. Also, the “Blood chemistry assay results (CBC, superchem, coagulation)” value in series [5] (pretreatment vs day 3 or day 14) is reported as “no differences”.
For cobra venom factor [CVF], in series [6], the “Free hemoglobin in plasma” value was “low levels of free hemoglobin”. Moreover, the “Systemic complement activity and brain injury” value in series [7] was “almost completely eliminated; also recorded: almost completely attenuated brain injury”.
As to “dPEG24-IALILEPICCQERAA (cysteine pairing not given here) [dPEG24-PA]”, the “Complement inhibition in hemolytic assay” value in [2] was “varying degrees of complement inhibition”.
Take “dPEG24-IALILEPICCQERAA-dPEG24 (cysteine pairing not given here) [dPEG24-PA-dPEG24]”: the “Complement inhibition in hemolytic assay” value in [2] is reported as “varying degrees of complement inhibition”.
